Measured values taken from patent US20240270762A1, “PENICILLIN-BINDING PROTEIN INHIBITORS” (priority 2021, published 2024).
≈ marks a conversion by molar mass, not a printed value. Like-named read-outs stand apart in the source and are kept apart here.

What was measured:
[1] = molecular target: T1, PBP3 from Escherichia coli (K-12) (Escherichia coli, UniProt P0AD68); assay: Bocillin-FL fluorescence polarization competition binding, E. coli PBP3
T1 construct: made in house
How it was run: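 Purified PBPs pre-incubated with inhibitor (E. coli PBP3 1.5 μM, 30 min; P. aeruginosa PBP3 0.75 μM, A. baumannii PBP1a 1 μM and PBP3 0.2 μM, 15 min), then Bocillin-FL 0.1 μM (0.05 μM for PBP1a) added; FP read up to 60 min. EC50 = concentration halving bound Bocillin-FL.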

P. aeruginosa ATCC 27853 = assay: microbe, parasite or virus in culture; assay type: cell-based; conditions: Pseudomonas aeruginosa, ATCC27853, read-out: Minimum inhibitory concentration, P. aeruginosa ATCC 27853
P. aeruginosa CDC-0054 = assay: microbe, parasite or virus in culture; assay type: cell-based; conditions: Pseudomonas aeruginosa, CDC0054, read-out: Minimum inhibitory concentration, P. aeruginosa CDC-0054
N. gonorrhoeae FA1090 = assay: Liquid broth MIC in Fastidious broth; conditions: Neisseria gonorrhoeae
N. gonorrhoeae WHO Z = assay: Liquid broth MIC in Fastidious broth; conditions: Neisseria gonorrhoeae
[2] = FA1090, read-out: Minimum Inhibitory Concentration, FA 1090
[3] = read-out: Minimum Inhibitory Concentration, WHO Z
[4] = FA1090, read-out: Minimum Inhibitory Concentration (MIC), N. gonorrhoeae FA 1090
[5] = read-out: Minimum Inhibitory Concentration (MIC), N. gonorrhoeae WHO Z

T1 sequence (P0AD68 1-577): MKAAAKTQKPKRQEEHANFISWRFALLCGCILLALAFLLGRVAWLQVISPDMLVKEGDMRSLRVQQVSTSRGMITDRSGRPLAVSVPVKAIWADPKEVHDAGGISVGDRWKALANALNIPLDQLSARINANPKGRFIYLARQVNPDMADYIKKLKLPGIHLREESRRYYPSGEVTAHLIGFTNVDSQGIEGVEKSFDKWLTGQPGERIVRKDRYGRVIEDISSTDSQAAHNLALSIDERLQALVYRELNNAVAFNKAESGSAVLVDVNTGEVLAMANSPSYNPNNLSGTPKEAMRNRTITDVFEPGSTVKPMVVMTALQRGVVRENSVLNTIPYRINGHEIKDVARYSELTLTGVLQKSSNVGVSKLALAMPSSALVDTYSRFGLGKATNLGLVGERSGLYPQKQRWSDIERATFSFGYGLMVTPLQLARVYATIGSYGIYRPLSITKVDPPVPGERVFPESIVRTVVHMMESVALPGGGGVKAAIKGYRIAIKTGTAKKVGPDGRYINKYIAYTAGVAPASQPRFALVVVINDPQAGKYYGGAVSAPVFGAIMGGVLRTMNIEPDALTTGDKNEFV

| SMILES | EC50 [1] | MIC (P. aeruginosa ATCC 27853) | MIC (P. aeruginosa CDC-0054) | MIC (N. gonorrhoeae FA1090; [2]) | MIC (N. gonorrhoeae WHO Z; [3]) | MIC (N. gonorrhoeae FA1090; [4]) | MIC (N. gonorrhoeae WHO Z; [5]) |
| --- | --- | --- | --- | --- | --- | --- | --- |
| O=C(NCCCN1CCN(C(=O)N[C@@H](C(=O)N[C@H]2Cc3ccc(F)c(C(=O)O)c3OB2O)c2cc(F)c(O)c(O)c2Cl)C(=O)C1=O)c1ccncc1 [Example 294, (R)-3-((R)-2-(2-chloro-5-fluoro-3,4-dihydroxyphenyl)-2-(4-(3-(isonicotinamido)propyl)-2,3-dioxopiperazine-1-carboxamido)acetamido)-7-fluoro-2-hydroxy-3,4-dihydro-2H-benzo[e][1,2]oxaborinine-8-carboxylic acid] | < 10 µM | < 1 µg/mL | < 1 µg/mL | 1 to 2 µg/mL (≈ 1.34 to 2.69 µM) | 16 to 32 µg/mL (≈ 21.5 to 43 µM) |  |  |
| O=C(O)c1cccc2c1OB(O)[C@@H](NC(=O)C(NC(=O)N1CCN(CC(F)(F)F)C(=O)C1=O)c1ccc(P(=O)(O)O)cc1)C2 (stereo partly drawn) [Example 4, (3R)-3-(2-(2,3-dioxo-4-(2,2,2-trifluoroethyl)piperazine-1-carboxamido)-2-(4-phosphonophenyl)acetamido)-2-hydroxy-3,4-dihydro-2H-benzo[e][1,2]oxaborinine-8-carboxylic acid] | < 10 µM |  |  |  |  | < 1 µg/mL | 1 to 2 µg/mL (≈ 1.56 to 3.11 µM) |
| O=C(NCCS(=O)(=O)N1CCN(C(=O)N[C@@H](C(=O)N[C@H]2Cc3ccc(F)c(C(=O)O)c3OB2O)c2cc(F)c(O)c(O)c2Cl)C1=O)Nc1ccncc1 [Example 290, (R)-3-((R)-2-(2-chloro-5-fluoro-3,4-dihydroxyphenyl)-2-(2-oxo-3-((2-(3-(pyridin-4-yl)ureido)ethyl)sulfonyl)imidazolidine-1-carboxamido)acetamido)-7-fluoro-2-hydroxy-3,4-dihydro-2H-benzo[e][1,2]oxaborinine-8-carboxylic acid] | < 10 µM | 2 to 4 µg/mL (≈ 2.56 to 5.12 µM) | 2 to 4 µg/mL (≈ 2.56 to 5.12 µM) | 1 to 2 µg/mL (≈ 1.28 to 2.56 µM) | 4 to 8 µg/mL (≈ 5.12 to 10.2 µM) |  |  |
| O=C(NCCS(=O)(=O)N1CCN(C(=O)NC(C(=O)N[C@H]2Cc3ccc(F)c(C(=O)O)c3OB2O)c2cc(F)c(O)c(O)c2Cl)C1=O)c1ccncc1 (stereo partly drawn) [Example 288, (3R)-3-(2-(2-chloro-5-fluoro-3,4-dihydroxyphenyl)-2-(3-((2-(isonicotinamido)ethyl)sulfonyl)-2-oxoimidazolidine-1-carboxamido)acetamido)-7-fluoro-2-hydroxy-3,4-dihydro-2H-benzo[e][1,2]oxaborinine-8-carboxylic acid] | < 10 µM | 2 to 4 µg/mL (≈ 2.61 to 5.22 µM) | 2 to 4 µg/mL (≈ 2.61 to 5.22 µM) | 1 to 2 µg/mL (≈ 1.3 to 2.61 µM) | 4 to 8 µg/mL (≈ 5.22 to 10.4 µM) |  |  |
| O=C(NCCCN1CCN(C(=O)N[C@H](C(=O)N[C@H]2Cc3ccc(F)c(C(=O)O)c3OB2O)c2cc(F)c(O)c(O)c2Cl)C1=O)Nc1ccc(O)cc1 [Example 283, (R)-3-((S)-2-(2-chloro-5-fluoro-3,4-dihydroxyphenyl)-2-(3-(3-(3-(4-hydroxyphenyl)ureido)propyl)-2-oxoimidazolidine-1-carboxamido)acetamido)-7-fluoro-2-hydroxy-3,4-dihydro-2H-benzo[e][1,2]oxaborinine-8-carboxylic acid] | > 250 µM | > 128 µg/mL | > 128 µg/mL | > 64 µg/mL | > 64 µg/mL |  |  |
| O=C(NCCCS(=O)(=O)N1CCN(C(=O)NC(C(=O)N[C@H]2Cc3ccc(F)c(C(=O)O)c3OB2O)c2cc(F)c(O)c(O)c2Cl)C1=O)Nc1ccncc1 (stereo partly drawn) [Example 291, (3R)-3-(2-(2-chloro-5-fluoro-3,4-dihydroxyphenyl)-2-(2-oxo-3-((3-(3-(pyridin-4-yl)ureido)propyl)sulfonyl)imidazolidine-1-carboxamido)acetamido)-7-fluoro-2-hydroxy-3,4-dihydro-2H-benzo[e][1,2]oxaborinine-8-carboxylic acid] | < 10 µM | 2 to 4 µg/mL (≈ 2.51 to 5.03 µM) | 2 to 4 µg/mL (≈ 2.51 to 5.03 µM) | 4 to 8 µg/mL (≈ 5.03 to 10.1 µM) | 4 to 8 µg/mL (≈ 5.03 to 10.1 µM) |  |  |
| CS(=O)(=O)N1CCN(C(=O)N[C@@H](C(=O)N[C@H]2Cc3cccc(C(=O)O)c3OB2O)c2ccc(P(=O)(O)O)cc2)C1=O (single isomer, unassigned) [Example 6] | < 10 µM | 32 to 64 µg/mL (≈ 52.4 to 105 µM) | > 128 µg/mL |  |  | < 1 µg/mL | < 1 µg/mL |
| O=C(NCCCN1CCN(C(=O)N[C@H](C(=O)N[C@H]2Cc3ccc(F)c(C(=O)O)c3OB2O)c2cc(F)c(O)c(O)c2Cl)C(=O)C1=O)c1cccc(O)c1Cl [Example 302, (R)-3-((S)-2-(4-(3-(2-chloro-3-hydroxybenzamido)propyl)-2,3-dioxopiperazine-1-carboxamido)-2-(2-chloro-5-fluoro-3,4-dihydroxyphenyl)acetamido)-7-fluoro-2-hydroxy-3,4-dihydro-2H-benzo[e][1,2]oxaborinine-8-carboxylic acid] | > 250 µM | 32 to 64 µg/mL (≈ 40.3 to 80.6 µM) | 32 to 64 µg/mL (≈ 40.3 to 80.6 µM) | > 64 µg/mL | > 64 µg/mL |  |  |
| O=C(NCCCN1CCN(C(=O)N[C@H](C(=O)N[C@H]2Cc3ccc(F)c(C(=O)O)c3OB2O)c2cc(F)c(O)c(O)c2Cl)C(=O)C1=O)c1cc(F)c(O)cc1F (single isomer, unassigned) [Example 472] | 50 to 250 µM | 2 to 4 µg/mL (≈ 2.51 to 5.03 µM) | < 1 µg/mL |  |  |  |  |
| O=C(NCCCN1CCN(C(=O)N[C@H](C(=O)N[C@H]2Cc3ccc(F)c(C(=O)O)c3OB2O)c2cc(F)c(O)c(O)c2Cl)C(=O)C1=O)c1ccc(O)cc1Cl (single isomer, unassigned) [Example 470] | 50 to 250 µM | 2 to 4 µg/mL (≈ 2.52 to 5.04 µM) | < 1 µg/mL |  |  |  |  |
| O=C(NCCCN1CCN(C(=O)N[C@H](C(=O)N[C@H]2Cc3ccc(F)c(C(=O)O)c3OB2O)c2cc(F)c(O)c(O)c2Cl)C(=O)C1=O)c1ccnc(F)c1F [Example 299, (R)-3-((S)-2-(2-chloro-5-fluoro-3,4-dihydroxyphenyl)-2-(4-(3-(2,3-difluoroisonicotinamido)propyl)-2,3-dioxopiperazine-1-carboxamido)acetamido)-7-fluoro-2-hydroxy-3,4-dihydro-2H-benzo[e][1,2]oxaborinine-8-carboxylic acid] | > 250 µM | 8 to 16 µg/mL (≈ 10.2 to 20.5 µM) | 2 to 4 µg/mL (≈ 2.56 to 5.12 µM) | 16 to 32 µg/mL (≈ 20.5 to 41 µM) | > 64 µg/mL |  |  |
| O=C(NCCS(=O)(=O)N1CCN(C(=O)N[C@H](C(=O)N[C@H]2Cc3ccc(F)c(C(=O)O)c3OB2O)c2cc(F)c(O)c(O)c2Cl)C1=O)c1ccc(O)cc1 [Example 286, (R)-3-((S)-2-(2-chloro-5-fluoro-3,4-dihydroxyphenyl)-2-(3-((2-(4-hydroxybenzamido)ethyl)sulfonyl)-2-oxoimidazolidine-1-carboxamido)acetamido)-7-fluoro-2-hydroxy-3,4-dihydro-2H-benzo[e][1,2]oxaborinine-8-carboxylic acid] | > 250 µM | > 128 µg/mL | > 128 µg/mL | > 64 µg/mL | > 64 µg/mL |  |  |
| CCN1CCN(C(=O)NC(C(=O)N[C@H]2Cc3cccc(C(=O)O)c3OB2O)c2cc(P(=O)(O)O)ccc2F)C(=O)C1=O (stereo partly drawn) [Example 2, (3R)-3-(2-(4-ethyl-2,3-dioxopiperazine-1-carboxamido)-2-(2-fluoro-5-phosphonophenyl)acetamido)-2-hydroxy-3,4-dihydro-2H-benzo[e][1,2]oxaborinine-8-carboxylic acid] | < 10 µM |  |  |  |  | < 1 µg/mL | 4 to 8 µg/mL (≈ 6.6 to 13.2 µM) |
| O=C(O)c1c(F)ccc2c1OB(O)[C@@H](NC(=O)C(NC(=O)N1CCN(Cc3ccc(O)c(O)c3Cl)C(=O)C1=O)c1cc(F)c(O)c(O)c1Cl)C2 (stereo partly drawn) [Example 292, (3R)-3-(2-(4-(2-chloro-3,4-dihydroxybenzyl)-2,3-dioxopiperazine-1-carboxamido)-2-(2-chloro-5-fluoro-3,4-dihydroxyphenyl)acetamido)-7-fluoro-2-hydroxy-3,4-dihydro-2H-benzo[e][1,2]oxaborinine-8-carboxylic acid] | < 10 µM | < 1 µg/mL | < 1 µg/mL | 16 to 32 µg/mL (≈ 21.6 to 43.3 µM) | > 64 µg/mL |  |  |
| CCN1CCN(C(=O)NC(C(=O)N[C@H]2Cc3cccc(C(=O)O)c3OB2O)c2ccc(P(=O)(O)O)cc2F)C(=O)C1=O (stereo partly drawn) [Example 1, (3R)-3-(2-(4-ethyl-2,3-dioxopiperazine-1-carboxamido)-2-(2-fluoro-4-phosphonophenyl)acetamido)-2-hydroxy-3,4-dihydro-2H-benzo[e][1,2]oxaborinine-8-carboxylic acid] | < 10 µM |  |  |  |  | < 1 µg/mL | < 1 µg/mL |
| CS(=O)(=O)N1CCN(C(=O)N[C@H](C(=O)N[C@H]2Cc3cccc(C(=O)O)c3OB2O)c2ccc(P(=O)(O)O)cc2)C1=O (single isomer, unassigned) [Example 5] | 50 to 250 µM |  |  |  |  | < 1 µg/mL | < 1 µg/mL |
| O=C(NCCCN1CCN(C(=O)NC(C(=O)N[C@H]2Cc3ccc(F)c(C(=O)O)c3OB2O)c2cc(F)c(O)c(O)c2Cl)C(=O)C1=O)c1ccnc(F)c1 (stereo partly drawn) [Example 466, (3R)-3-(2-(2-chloro-5-fluoro-3,4-dihydroxyphenyl)-2-(4-(3-(2-fluoroisonicotinamido)propyl)-2,3-dioxopiperazine-1-carboxamido)acetamido)-7-fluoro-2-hydroxy-3,4-dihydro-2H-benzo[e][1,2]oxaborinine-8-carboxylic acid] | < 10 µM | 2 to 4 µg/mL (≈ 2.62 to 5.24 µM) | < 1 µg/mL |  |  |  |  |
| NCCN1CCN(C(=O)NC(C(=O)N[C@H]2Cc3cccc(C(=O)O)c3OB2O)c2ccc(P(=O)(O)O)cc2)C(=O)C1=O (stereo partly drawn) [Example 3, (3R)-3-(2-(4-(2-aminoethyl)-2,3-dioxopiperazine-1-carboxamido)-2-(4-phosphonophenyl)acetamido)-2-hydroxy-3,4-dihydro-2H-benzo[e][1,2]oxaborinine-8-carboxylic acid] | 10 to 50 µM |  |  |  |  | < 1 µg/mL | 1 to 2 µg/mL (≈ 1.66 to 3.32 µM) |
